Experimental data from patent publication US10543212B2, “Substituted amines for treating cardiac diseases” (Cardurion Pharmaceuticals, LLC, priority 2017, dated 2020).

The molecules below were run against T1, Full-length, GST-tagged, human CaMKIIδ (Homo sapiens, UniProt Q13557) (assay: CaMKIIδ binding assay (TR-FRET with BODIPY-labeled probe ligand)). Conditions: CaMKIIδ binding assay, results of Table 2.
T1 construct: Full-Length, Glutathione-S-Transferase(GST)-Tagged, Human CaMKIIδ was purchased from Carna Biosciences; purchased Carna Biosciences 02-111
T1 sequence (Q13557 1-478 isoform Q13557-12): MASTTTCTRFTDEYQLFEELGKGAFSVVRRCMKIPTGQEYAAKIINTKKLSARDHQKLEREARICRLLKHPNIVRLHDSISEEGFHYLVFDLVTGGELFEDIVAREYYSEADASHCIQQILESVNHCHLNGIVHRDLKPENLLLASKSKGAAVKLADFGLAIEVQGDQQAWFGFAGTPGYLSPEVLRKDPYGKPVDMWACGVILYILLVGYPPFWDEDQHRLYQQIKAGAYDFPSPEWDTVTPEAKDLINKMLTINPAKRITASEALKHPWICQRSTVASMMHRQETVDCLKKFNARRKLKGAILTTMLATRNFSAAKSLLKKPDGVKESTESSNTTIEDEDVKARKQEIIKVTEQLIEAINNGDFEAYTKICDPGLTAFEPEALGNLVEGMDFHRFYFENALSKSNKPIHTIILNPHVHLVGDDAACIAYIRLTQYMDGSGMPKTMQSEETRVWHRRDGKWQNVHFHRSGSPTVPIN
Procedure, shortened: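 TR-FRET probe-displacement binding: 0.5 nM GST-CaMKIIδ with 10 μg/mL calmodulin, 1 mM CaCl2, 0.21 nM Tb-anti-GST Ab and 300 nM BODIPY probe in HEPES pH 7.6 buffer. Eight-point 4-fold dilutions, 1 hr at room temperature. IC50 from logistic fit; 100% inhibition defined by 3 μM parent compound.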
Work on `C[C@@H](Cn1cnnn1)Oc1cc(-c2cnc(Nc3cn(C4CCNCC4)nc3C(F)(F)F)nc2)ccc1Cl` [Example 483, (S)-5-(3-((1-(1H-tetrazol-1-yl)propan-2-yl)oxy)-4-chlorophenyl)-N-(1-(piperidin-4-yl)-3-(trifluoromethyl)-1H-pyrazol-4-yl)pyrimidin-2-amine] yielded an IC50 of less than 10 nM. `COc1ccc(N2CCCC(N3CCOCC3)C2)cc1Nc1ncc(-c2ccc(Cl)c(O[C@@H](C)Cn3cnnn3)c2)cn1` (stereo partly drawn) [Example 455, 5-(3-(((S)-1-(1H-tetrazol-1-yl)propan-2-yl)oxy)-4-chlorophenyl)-N-(2-methoxy-5-(3-morpholinopiperidin-1-yl)phenyl)pyrimidin-2-amine] showed an IC50 of 10 to 100 nM. `COc1cc(C2CCCN(C3COC3)C2)ccc1Nc1ncc(-c2ccc(Cl)c(O[C@@H](C)Cn3cnnn3)c2)cn1` (stereo partly drawn) [Example 494, 5-(3-(((S)-1-(1H-tetrazol-1-yl)propan-2-yl)oxy)-4-chlorophenyl)-N-(2-methoxy-4-(1-(oxetan-3-yl)piperidin-3-yl)phenyl)pyrimidin-2-amine] showed an IC50 of less than 10 nM. Molecule `C[C@@H](Cn1cnnn1)Oc1cc(-c2cnc(Nc3cc4c(cc3Cl)CCN(C(=O)C(F)(F)F)CC4)nc2)ccc1C#N` [Example 525, (S)-2-((1-(1H-tetrazol-1-yl)propan-2-yl)oxy)-4-(2-((8-chloro-3-(2,2,2-trifluoroacetyl)-2,3,4,5-tetrahydro-1H-benzo[d]azepin-7-yl)amino)pyrimidin-5-yl)benzonitrile] has an IC50 of 10 to 100 nM. Work on `COc1cc2c(cc1Nc1ncc(-c3ccc(C#N)c(O[C@@H](C)Cn4cnnn4)c3)cn1)C(=O)N(C1CCC1)C2` [Example 442, (S)-2-((1-(1H-tetrazol-1-yl)propan-2-yl)oxy)-4-(2-((2-cyclobutyl-6-methoxy-3-oxoisoindolin-5-yl)amino)pyrimidin-5-yl)benzonitrile] yielded an IC50 of 10 to 100 nM. `COc1cc(C)c(C(=O)N2CCOCC2)cc1Nc1ncc(-c2ccc(C#N)c(O[C@@H](C)Cn3cnnn3)c2)cn1` [Example 440, (S)-2-((1-(1H-tetrazol-1-yl)propan-2-yl)oxy)-4-(2-((2-methoxy-4-methyl-5-(morpholine-4-carbonyl)phenyl)amino)pyrimidin-5-yl)benzonitrile] gave an IC50 of less than 10 nM. In the case of `COc1cc2c(cc1Nc1ncc(-c3ccc(Cl)c(O[C@@H](C)Cn4cnnn4)c3)cn1)CCN(C(=O)CN(C)C)C2` [Example 459, (S)-1-(6-((5-(3-((1-(1H-tetrazol-1-yl)propan-2-yl)oxy)-4-chlorophenyl)pyrimidin-2-yl)amino)-7-methoxy-3,4-dihydroisoquinolin-2(1H)-yl)-2-(dimethylamino)ethan-1-one], the IC50 is reported as less than 10 nM. With `COc1ccc(N2CCN(C3COC3)CC2)cc1Nc1ncc(-c2ccc(Cl)c(O[C@@H](C)Cn3cnnn3)c2)cn1` [Example 576, (S)-5-(3-((1-(1H-tetrazol-1-yl)propan-2-yl)oxy)-4-chlorophenyl)-N-(2-methoxy-5-(4-(oxetan-3-yl)piperazin-1-yl)phenyl)pyrimidin-2-amine] the IC50 was 10 to 100 nM.

Same assay, conditions: CaMKIIδ binding assay; activity class per Table 2
Molecule `C[C@@H](Cn1cnnn1)Oc1cc(-c2cnc(Nc3cn([C@@H]4CCNC[C@H]4O)nc3C(F)(F)F)nc2)ccc1Cl` (mixture of isomers) [Example 892, trans-4-(4-((5-(3-(((S)-1-(1H-tetrazol-1-yl)propan-2-yl)oxy)-4-chlorophenyl)pyrimidin-2-yl)amino)-3-(trifluoromethyl)-1H-pyrazol-1-yl)piperidin-3-ol] has an IC50 of less than 10 nM. Work on `CCC(=O)c1nn(C2CC3(C2)CN(C2CCOCC2)C3)cc1Nc1ncc(-c2ccc(Cl)c(O[C@@H](C)Cn3cnnn3)c2)cn1` [Example 958, (S)-1-(4-((5-(3-((1-(1H-tetrazol-1-yl)propan-2-yl)oxy)-4-chlorophenyl)pyrimidin-2-yl)amino)-1-(2-(tetrahydro-2H-pyran-4-yl)-2-azaspiro[3.3]heptan-6-yl)-1H-pyrazol-3-yl)propan-1-one] yielded an IC50 of less than 10 nM. `C[C@@H](Cn1cnnn1)Oc1cc(-c2cnc(Nc3cn(C(C)(C)C(N)=O)nc3OCC(F)(F)F)nc2)ccc1Cl` [Example 894, (S)-2-(4-((5-(3-((1-(1H-tetrazol-1-yl)propan-2-yl)oxy)-4-chlorophenyl)pyrimidin-2-yl)amino)-3-(2,2,2-trifluoroethoxy)-1H-pyrazol-1-yl)-2-methylpropanamide] gave an IC50 of less than 10 nM. `C[C@@H](Cn1cnnn1)Oc1cc(-c2cnc(Nc3cn(C4CC5(C4)CN(C4CCCOCC4)C5)nc3OCC(F)(F)F)nc2)ccc1Cl` (stereo partly drawn) [Example 981, 5-(3-(((S)-1-(1H-tetrazol-1-yl)propan-2-yl)oxy)-4-chlorophenyl)-N-(1-(2-(oxepan-4-yl)-2-azaspiro[3.3]heptan-6-yl)-3-(2,2,2-trifluoroethoxy)-1H-pyrazol-4-yl)pyrimidin-2-amine] showed an IC50 of less than 10 nM. In the case of `C[C@@H](Cn1cnnn1)Oc1cc(-c2cnc(Nc3cn(C4CC5(CNC5)C4)nc3OCC(F)(F)F)nc2)ccc1C(F)F` [Example 949, (S)-5-(3-((1-(1H-tetrazol-1-yl)propan-2-yl)oxy)-4-(difluoromethyl)phenyl)-N-(1-(2-azaspiro[3.3]heptan-6-yl)-3-(2,2,2-trifluoroethoxy)-1H-pyrazol-4-yl)pyrimidin-2-amine], the IC50 is reported as less than 10 nM.

Same assay, conditions: Table 2; CaMKIIδ binding assay, activity given as class A/B/C
For `COc1ncc(N2CCN(C3CCOCC3)CC2)cc1Nc1ncc(-c2ccc(Cl)c(O[C@@H](C)Cn3cnnn3)c2)cn1` [Example 770, (S)-5-(3-((1-(1H-tetrazol-1-yl)propan-2-yl)oxy)-4-chlorophenyl)-N-(2-methoxy-5-(4-(tetrahydro-2H-pyran-4-yl)piperazin-1-yl)pyridin-3-yl)pyrimidin-2-amine], the IC50 was less than 10 nM. Work on `C[C@@H](Cn1cnnn1)Oc1cc(-c2cnc(Nc3cc(N4CCN(C5CCOCC5)CC4)ccc3OC(F)(F)F)nc2)ccc1Cl` [Example 768, (S)-5-(3-((1-(1H-tetrazol-1-yl)propan-2-yl)oxy)-4-chlorophenyl)-N-(5-(4-(tetrahydro-2H-pyran-4-yl)piperazin-1-yl)-2-(trifluoromethoxy)phenyl)pyrimidin-2-amine] yielded an IC50 of less than 10 nM. `C[C@@H](Cn1cnnn1)Oc1cc(-c2cnc(Nc3cn(C4CCNCC4)nc3OCCF)nc2)ccc1Cl` [Example 824, (S)-5-(3-((1-(1H-tetrazol-1-yl)propan-2-yl)oxy)-4-chlorophenyl)-N-(3-(2-fluoroethoxy)-1-(piperidin-4-yl)-1H-pyrazol-4-yl)pyrimidin-2-amine] gave an IC50 of less than 10 nM. `C[C@@H](Cn1cnnn1)Oc1cc(-c2cnc(Nc3cn([C@H]4CC[C@H](N5CCOCC5)CC4)nc3OCC(F)F)nc2)ccc1F` [Example 835, 5-(3-(((S)-1-(1H-tetrazol-1-yl)propan-2-yl)oxy)-4-fluorophenyl)-N-(3-(2,2-difluoroethoxy)-1-(trans-4-morpholinocyclohexyl)-1H-pyrazol-4-yl)pyrimidin-2-amine] gave an IC50 of less than 10 nM.

Same assay, conditions: Table 2; activity class for CaMKIIδ
`COc1cc(N2C[C@@H]3C[C@H]2CN3)ccc1Nc1ncc(-c2ccc(Cl)c(O[C@@H](C)Cn3cnnn3)c2)cn1` [Example 634, 5-(3-(((S)-1-(1H-tetrazol-1-yl)propan-2-yl)oxy)-4-chlorophenyl)-N-(4-((1S,45)-2,5-diazabicyclo[2.2.1]heptan-2-yl)-2-methoxyphenyl)pyrimidin-2-amine] was tested, and the IC50 was 10 to 100 nM. With `C[C@@H](Cn1cnnn1)Oc1cc(-c2cnc(Nc3cn(CCN4CCOCC4)nc3C(F)(F)F)nc2)ccc1Cl` [Example 633, (S)-5-(3-((1-(1H-tetrazol-1-yl)propan-2-yl)oxy)-4-chlorophenyl)-N-(1-(2-morpholinoethyl)-3-(trifluoromethyl)-1H-pyrazol-4-yl)pyrimidin-2-amine] the IC50 was 10 to 100 nM.
